Earlier results as cited in US9932302B1, “N-phenyl and N-benzyl enaminones and methods for using same” (University of Maryland Eastern Shore, priority 2013, dated 2018).

Experiments:
Conditions in all cases: pre-clinical pharmacological profile
[1] = system: maximal electroshock seizure (MES)
[2] = system: subcutaneous Metrazol (sc Met) induced seizure
[3] = system: 6 Hz psychomotor seizure

Row | SMILES | MES activity profile of current AED [1] | scPTZ activity profile of current AED [2] | 6 Hz activity profile of current AED [3]
1 | O=C1NC(=O)C(c2ccccc2)(c2ccccc2)N1 [phenytoin] | active | active | 
2 | CC[C@@H](C(N)=O)N1CCCC1=O [levetiracetam] |  |  | active
